Results from patent publication US8962681B2, “Use of aminoacetonitrile derivatives against endoparasites” (Zoetis LLC, priority 2011, dated 2015).

Each compound was assayed on L4 stage larvae of D. immitis (assay: L4 stage larvae motility/kill assay). Details: not given.
Assay type: cell-based, Dirofilaria immitis

Q: With ivermectin [reference compound] as the compound, how does the “active against L4 D. immitis at 10 μM” value read?
A: The value was “active”.

Same assay, conditions: screened at 10 μM in duplicate, 96-well plate; motility observed at 4, 24, 48 and 72 hours; endpoint defined as ED80 (80% of larvae killed)

Q: For `CC(C#N)(COc1ccc(C#N)cc1Br)NC(=O)c1ccc(S(F)(F)(F)(F)F)cc1` (centres unmarked) [test compound 29, N-[2-(2-bromo-4-cyanophenoxy)-1-cyano-1-methylethyl]-4-(pentafluorothio)-benzamide], which “active against L4 D. immitis at 10 μM” value is on record?
A: The value was “active”.

Q: How did the “active against L4 D. immitis at 10 μM” value turn out when `COc1ccccc1Oc1ccc(C#N)cc1OCC(C)(C#N)NC(=O)c1ccc(S(F)(F)(F)(F)F)cc1` (centres unmarked) [test compound 69, N-{1-cyano-2-[5-cyano-2-(2-methoxyphenoxy)phenoxy]-1-methylethyl}-4-(pentafluorothio)benzamide] was run?
A: The value was “active”.

Q: milbemycin oxime [reference compound] was tested. Which “active against L4 D. immitis at 10 μM” value did it give?
A: The value was “active”.

Q: For `CC(C#N)(COc1ccc(Cl)cc1Cl)NC(=O)c1ccc(S(F)(F)(F)(F)F)cc1` (centres unmarked) [test compound 8, N-[1-cyano-2-(2,4-dichlorophenoxy)-1-methylethyl]-4-(pentafluorothio)benzamide], which “active against L4 D. immitis at 10 μM” value is on record?
A: The value was “active”.

What follows are compounds tested on Dirofilaria immitis microfilariae (assay: in vitro microwell motility assay against heartworm microfilariae). Details: microfilaria from canine blood, 384 well plate, 72 hours incubation at 37° C. and 5% CO2, LemnaTec Scanalyzer.
Assay type: cell-based

Q: For `CC(C#N)(Cc1ccc(C#N)cc1Cl)NC(=O)c1ccc(S(F)(F)(F)(F)F)cc1` (centres unmarked) [test compound 90, N-[2-(2-chloro-4-cyanophenyl)-1-cyano-1-methylethyl]-4-(pentafluorothio)benzamide], which “ED50 (dose at which the overall microfilaria motility was reduced by 50% compared to that of an untreated control)” value is on record?
A: Its value is 33 µM.

Q: How did the “ED50 (dose at which the overall microfilaria motility was reduced by 50% compared to that of an untreated control)” value turn out when `Cc1cc(C#N)ccc1OCC(C)(C#N)NC(=O)c1ccc(S(F)(F)(F)(F)F)cc1` (centres unmarked) [test compound 40, N-[1-cyano-2-(4-cyano-2-methylphenoxy)-1-methylethyl]-4-(pentafluorothio)-benzamide] was run?
A: Its value is 10 µM.

Q: Which “ED50 (dose at which the overall microfilaria motility was reduced by 50% compared to that of an untreated control)” value does the source give for `CC(C#N)(COc1c(F)cc(C#N)cc1C(F)(F)F)NC(=O)c1ccc(S(F)(F)(F)(F)F)cc1` (centres unmarked) [test compound 26, N-{1-cyano-2-[4-cyano-2-fluoro-6-(trifluoromethyl)phenoxy]-1-methylethyl}-4-(pentafluorothio)benzamide] here?
A: Its value is 10 µM.

Q: Which “ED50 (dose at which the overall microfilaria motility was reduced by 50% compared to that of an untreated control)” value does the source give for `CC(C#N)(COc1cc(C#N)ccc1Oc1ccc(Cl)cc1Cl)NC(=O)c1ccc(S(F)(F)(F)(F)F)cc1` (centres unmarked) [test compound 65, N-{1-cyano-2-[5-cyano-2-(2,4-dichlorophenoxy)phenoxy]-1-methylethyl}-4-(pentafluorothio)benzamide] here?
A: Its value is 3.3 µM.

Q: How did the “ED50 (dose at which the overall microfilaria motility was reduced by 50% compared to that of an untreated control)” value turn out when `Cc1ccc(Oc2ccc(C#N)cc2OCC(C)(C#N)NC(=O)c2ccc(S(F)(F)(F)(F)F)cc2)c(C)c1` (centres unmarked) [test compound 72, N-{1-cyano-2-[5-cyano-2-(2,4-dimethylphenoxy)phenoxy]-1-methylethyl}-4-(pentafluorothio)benzamide] was run?
A: Its value is 1 µM.

Q: How did the “ED50 (dose at which the overall microfilaria motility was reduced by 50% compared to that of an untreated control)” value turn out when `CC(C#N)(NC(=O)c1ccc(S(F)(F)(F)(F)F)cc1)C1Cc2cc(C#N)cc(C(F)(F)F)c2O1` (centres unmarked) [test compound 83, N-{1-cyano-1-[5-cyano-7-(trifluoromethyl)-2,3-dihydro-1-benzofuran-2-yl]ethyl}-4-(pentafluorothio)benzamide] was run?
A: The value was 10 µM.

Q: For `CC(C#N)(COc1cc(C#N)ccc1Oc1ccc(C(F)(F)F)cc1)NC(=O)c1ccc(S(F)(F)(F)(F)F)cc1` (centres unmarked) [test compound 67, N-(1-cyano-2-{5-cyano-2-[4-(trifluoromethyl)phenoxy]phenoxy}-1-methylethyl)-4-(pentafluorothio)benzamide], which “ED50 (dose at which the overall microfilaria motility was reduced by 50% compared to that of an untreated control)” value is on record?
A: The value was 1 µM.

Q: Which “ED50 (dose at which the overall microfilaria motility was reduced by 50% compared to that of an untreated control)” value does the source give for `COc1ccc(Oc2ccc(C#N)cc2OCC(C)(C#N)NC(=O)c2ccc(S(F)(F)(F)(F)F)cc2)c(F)c1F` (centres unmarked) [test compound 76, N-{1-cyano-2-[5-cyano-2-(2,3-difluoro-4-methoxyphenoxy)phenoxy]-1-methylethyl}-4-(pentafluorothio)benzamide] here?
A: The value was 10 µM.

Q: Which “ED50 (dose at which the overall microfilaria motility was reduced by 50% compared to that of an untreated control)” value does the source give for `CC(C#N)(COc1cc(C#N)ccc1Br)NC(=O)c1ccc(S(F)(F)(F)(F)F)cc1` (centres unmarked) [test compound 27, N-[2-(2-bromo-5-cyanophenoxy)-1-cyano-1-methylethyl]-4-(pentafluorothio)-benzamide] here?
A: Its value is 3.3 µM.

Q: How did the “ED50 (dose at which the overall microfilaria motility was reduced by 50% compared to that of an untreated control)” value turn out when `CC(C#N)(COc1cc(C#N)ccc1Oc1ccc(F)cc1Cl)NC(=O)c1ccc(S(F)(F)(F)(F)F)cc1` (centres unmarked) [test compound 63, N-{2-[2-(2-chloro-4-fluorophenoxy)-5-cyanophenoxy]-1-cyano-1-methylethyl}-4-(pentafluorothio)benzamide] was run?
A: The value was 3.3 µM.

Q: With `CC(C#N)(COc1cc(Cl)ccc1Cl)NC(=O)c1ccc(S(F)(F)(F)(F)F)cc1` (centres unmarked) [test compound 39, N-[1-cyano-2-(2,5-dichlorophenoxy)-1-methylethyl]-4-(pentafluorothio)benzamide] as the compound, how does the “ED50 (dose at which the overall microfilaria motility was reduced by 50% compared to that of an untreated control)” value read?
A: Its value is 10 µM.

Q: For `CC(C#N)(COc1cc(C#N)ccc1OC(F)(F)F)NC(=O)c1ccc(S(F)(F)(F)(F)F)cc1` (centres unmarked) [test compound 55, N-{1-cyano-2-[5-cyano-2-(trifluoromethoxy)phenoxy]-1-methylethyl}-4-(pentafluorothio)benzamide], which “ED50 (dose at which the overall microfilaria motility was reduced by 50% compared to that of an untreated control)” value is on record?
A: Its value is 10 µM.

Q: Which “ED50 (dose at which the overall microfilaria motility was reduced by 50% compared to that of an untreated control)” value does the source give for `CSc1ccc(COCC(C)(C#N)NC(=O)c2ccc(S(F)(F)(F)(F)F)cc2)cc1` (centres unmarked) [test compound 53, N-(1-cyano-1-methyl-2-{[4-(methylthio)benzyl]oxy}ethyl)-4-(pentafluorothio)benzamide] here?
A: The value was 10 µM.

Q: `COc1ccc(Oc2ccc(C#N)cc2OCC(C)(C#N)NC(=O)c2ccc(S(F)(F)(F)(F)F)cc2)cc1` (centres unmarked) [test compound 66, N-{1-cyano-2-[5-cyano-2-(4-methoxyphenoxy)phenoxy]-1-methylethyl}-4-(pentafluorothio)benzamide] was tested. Which “ED50 (dose at which the overall microfilaria motility was reduced by 50% compared to that of an untreated control)” value did it give?
A: Its value is 3.3 µM.

Q: Which “ED50 (dose at which the overall microfilaria motility was reduced by 50% compared to that of an untreated control)” value does the source give for `COc1cc(F)c(Oc2ccc(C#N)cc2OCC(C)(C#N)NC(=O)c2ccc(S(F)(F)(F)(F)F)cc2)c(F)c1` (centres unmarked) [test compound 77, N-{1-cyano-2-[5-cyano-2-(2,6-difluoro-4-methoxyphenoxy)phenoxy]-1-methylethyl}-4-(pentafluorothio)benzamide] here?
A: Its value is 10 µM.

Q: How did the “ED50 (dose at which the overall microfilaria motility was reduced by 50% compared to that of an untreated control)” value turn out when `CC(C#N)(COc1ccc(Cl)cc1F)NC(=O)c1ccc(S(F)(F)(F)(F)F)cc1` (centres unmarked) [test compound 20, N-[2-(4-chloro-2-fluorophenoxy)-1-cyano-1-methylethyl]-4-(pentafluorothio)-benzamide] was run?
A: The value was 10 µM.

Q: With `Cc1ccc(Oc2ccc(C#N)cc2OCC(C)(C#N)NC(=O)c2ccc(S(F)(F)(F)(F)F)cc2)c(Cl)c1` (centres unmarked) [test compound 71, N-{2-[2-(2-chloro-4-methylphenoxy)-5-cyanophenoxy]-1-cyano-1-methylethyl}-4-(pentafluorothio)benzamide] as the compound, how does the “ED50 (dose at which the overall microfilaria motility was reduced by 50% compared to that of an untreated control)” value read?
A: The value was 1 µM.

Q: Which “ED50 (dose at which the overall microfilaria motility was reduced by 50% compared to that of an untreated control)” value does the source give for `CC(C#N)(COc1cc(C#N)ccc1C(F)(F)F)NC(=O)c1ccc(S(F)(F)(F)(F)F)cc1` (centres unmarked) [test compound 3, N-{1-cyano-2-[5-cyano-2-(trifluoromethyl)phenoxy]-1-methylethyl}-4-(pentafluorothio)benzamide] here?
A: Its value is 10 µM.
